One may read the IC50 as the concentration that inhibits the measured activity by half.

Series [1] deals with BACE-1 (Homo sapiens (Human), UniProt P56817). The series can be described thus: cell-free BACE enzyme assay with P5-P5′ substrate. The class given is biochemical. As to the method:
For the assay, 4 μL of assay buffer was added to each well, followed by 2 μL of BACE-1 diluted in assay buffer to 7.5 ng/μL. Then, 2 μL of inhibitor, at concentrations along an 11 pt. two-fold dilution series starting at 0.5 μM, were added to appropriate wells and incubated for 30 minutes at room temperature. Afterwards, 2 μL of P5-P5′ BACE-1 substrate, diluted to 50 μM in assay buffer, were added to each well, after which the signal generated was read every 30 minutes at 25° C. for 2 hr.

Series [2] has as its target Cathepsin D (CatD) (Homo sapiens (Human), UniProt P07339). The series can be described thus: Cathepsin-D assay. The series is classed as biochemical. The procedure:
For the assay, 4 μL of assay buffer was added to each well, followed by 2 μL of Cathepsin D (CatD) diluted in assay buffer to 5 ng/μL. Then, 2 μL of inhibitor, prepared to get a testing concentration of 20 μM, were added to appropriated wells and incubated for 30 minutes at room temperature. Afterwards, 2 μL of CatD substrate, diluted to 50 μM in assay buffer, were added to each well, after which the signal generated was read every 30 minutes at 25° C. for 1 hr. Signals shown in FIG. 6 are representative of readings at 1 hr.

A short description of series [3]: PAMPA. The class given is in vitro ADME. (In PAMPA a lipid-coated filter parts donor from acceptor wells.)
Series [4] deals with CHO-7W cells (stably transfected with human amyloid precursor protein wildtype). Put plainly: CHO-7W cell assay (AlphaLISA of media). The class given is cell-based, Chinese hamster. The note with it: treatment for 24 hours. The procedure: For the assay, 50 μL of CHO-7W cells were added to each well at 4×10^5 cells/mL. Then, 50 μL of inhibitor, prepared for tested concentrations, were added to appropriated wells and incubated for 24 hours at 37° C. Afterwards, media from each well is collected and assayed using an AlphaLISA assay for respective analytes.
(Bead proximity is the source of the signal in Alpha formats.)

Series [5] is described as follows: pharmacokinetics in mice. The series is classed as in vivo.
The test system of series [6] is neuregulin 1 (NRG-1) (Homo sapiens (Human)). Put plainly: NRG1 cleavage assay in NRG1-BACE1 co-transfected 293T cells. The class given is cell-based. The procedure: (§1) 293T cells were plated in 96-well plates at 40,000 cells/well, incubated overnight at 37° C. and 5% CO2. Next day, cells were co-transfected with NRG1-BACE1 plasmids or PSGL1-BACE1 plasmids using Lipofectamine2000, as describe previously. Six hours after transfection, the reagents were removed and media containing the different compounds at various concentrations were loaded into each well.
(§2) After overnight incubation with the compounds, 20 μL of media were removed and added to a new plate. Then, 200 μl of reaction solution (0.1 M glycine, pH 10.4, 1 mM MgCl2, 1 mM ZnCl2 containing 1 mg/ml 4-nitrophenyl phosphate disodium salt hexahydrate, Sigma S0942) were loaded into each well of the plate. The absorbance was read at 405 nm for 60 min in 30 min intervals in a SpectraMax M5.
(§3) These compounds were diluted to 10 mM in DMSO. This solution was diluted to 20, 10, 2, 1, 0.2 and 0.02 μM in DMEM high Glucose containing 10% of FBS and 1% of Penicillin-Streptomycin containing 0.2% DMSO.

Series [7] relates to p-selectin glycoprotein ligand 1 (PSGL-1) (Homo sapiens (Human)). Put plainly: PSGL1 cleavage assay in PSGL1-BACE1 co-transfected 293T cells. The class given is cell-based. The procedure:
as §1, §2, §3

Series [8] relates to BACE cleavage of APP. The series can be described thus: pilot study in AD model mice. The series is classed as in vivo. Particulars: orally 30 mg/kg/day for 10 days.
Series [9] is described as follows: pharmacokinetic study in rats. The series is classed as in vivo. The note with it: wildtype Sprague-Dawley rats, 30 mg/kg orally, at 2 hours.
Series [10] concerns BACE cleavage of APP. The series can be described thus: pharmacodynamic pilot study in rats (CSF and brain tissue). The class given is in vivo, Sprague-Dawley rats. Particulars: 30 mg/kg orally.
Setting [11] is: cell-free, several replicate values per cell, some flagged 's' (flag not defined), read-out: BACE1 IC50.

Where “and” joins values, the source holds several entries; their conditions need not be identical. Equal entries are not always repeated. Where two headings read alike, the source gives them in different places.

Cathepsin D (CatD), sequence (P07339 65-412, species assumed): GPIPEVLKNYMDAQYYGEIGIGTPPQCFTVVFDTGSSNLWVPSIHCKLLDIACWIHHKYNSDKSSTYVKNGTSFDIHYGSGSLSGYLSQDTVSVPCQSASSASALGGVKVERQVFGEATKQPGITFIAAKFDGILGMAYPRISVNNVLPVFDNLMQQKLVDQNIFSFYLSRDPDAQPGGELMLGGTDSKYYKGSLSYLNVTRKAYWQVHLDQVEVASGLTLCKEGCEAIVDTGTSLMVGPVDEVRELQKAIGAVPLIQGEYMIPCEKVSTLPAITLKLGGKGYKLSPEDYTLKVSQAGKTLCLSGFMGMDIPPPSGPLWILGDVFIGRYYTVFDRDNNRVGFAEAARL
BACE-1, sequence (P56817 46-501): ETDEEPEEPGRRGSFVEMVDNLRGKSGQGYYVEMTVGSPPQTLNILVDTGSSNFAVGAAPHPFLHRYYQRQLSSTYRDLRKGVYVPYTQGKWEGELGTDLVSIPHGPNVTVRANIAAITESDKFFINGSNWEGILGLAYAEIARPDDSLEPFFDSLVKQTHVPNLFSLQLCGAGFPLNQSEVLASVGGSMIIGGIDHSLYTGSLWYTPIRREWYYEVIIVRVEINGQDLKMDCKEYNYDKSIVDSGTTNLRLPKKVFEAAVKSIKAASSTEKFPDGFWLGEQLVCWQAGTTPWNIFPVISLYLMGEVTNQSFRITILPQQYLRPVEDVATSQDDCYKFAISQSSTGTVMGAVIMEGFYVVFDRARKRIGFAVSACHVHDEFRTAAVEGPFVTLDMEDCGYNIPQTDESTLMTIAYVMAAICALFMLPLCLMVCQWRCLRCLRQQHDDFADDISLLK

Regarding `Cc1cc(C2(c3cccc(-c4cccnc4)c3)N=C(N)N(C)C2=O)ccc1OC(F)F` (stereo not shown) [FAH-32], the half-inhibitory concentration (IC50) in series [1] (setting [11]) is 11 nM and 16 nM and 17 nM; in [2] it was more than 100000 nM. The PAMPA in [3] was 0.91 and 0.92.
On to `Cc1cc(C2(c3cccc(-c4cnco4)c3)N=C(N)N(C)C2=O)ccc1OC(F)F` (stereo not shown) [FAH-43], for which, in [1] (setting [11]), the IC50 is 140 nM and 230 nM and 490 nM. The same molecule registered a PAMPA in series [3] of 0.79. Besides, in series [4], the “amyloid-beta (Aβ)” value was “significantly decreased” and the “soluble amyloid precursor protein beta (sAPPβ)” value is given as “significantly decreased”.
Regarding `Cc1cc(C2(c3ccc(F)c(-c4cncnc4)c3)N=C(N)N(C)C2=O)ccc1OC(F)F` (stereo not shown) [FAH-127, 2-amino-5-(4-(difluoromethoxy)-3-methylphenyl)-5-(4-fluoro-3-(pyrimidin-5-yl)phenyl)-3-methyl-3,5-dihydro-4H-imidazol-4-one], the IC50 in series [1] (cell-free BACE assay) was 13 nM; in series [1] (setting [11]), 14 nM and 13 nM and 5 nM and 24.6 nM. Moreover, the PAMPA in [3] was 0.53 and 0.49 and 0.50. In addition, in series [5], the brain penetrance entry is “good brain-penetrance”. Further, the brain peak in series [5] (at 1 hour) was ~3000 (range 600-6000) ng/g.
For the molecule `CC#Cc1cc(C2(c3ccc(OC(F)F)c(C)c3)N=C(N)N(C)C2=O)ccn1` (stereo not shown) [FAH-57], in series [1] (setting [11]), the IC50 is 440 nM and 510 nM. Further, in [3], the PAMPA turned out to be 0.61. Besides, in series [4], the “amyloid-beta (Aβ)” value is on record as “significantly decreased” and the “soluble amyloid precursor protein beta (sAPPβ)” value was “significantly decreased”.
In the case of `Cc1cc(C2(c3cccc(-c4cncc(F)c4)c3)N=C(N)N(C)C2=O)ccc1OC(F)F` (stereo not shown) [FAH-66], in series [1] (setting [11]), the 50% inhibitory concentration (IC50) was 18 nM and 12 nM and 19 nM and 47 nM and 28 nM and 36 nM. In series [3], this molecule yielded a PAMPA of 1.15. Besides, in [4], the “amyloid-beta (Aβ)” value is “significantly decreased” and the “soluble amyloid precursor protein beta (sAPPβ)” value is “significantly decreased”.
On to `Cc1cc(C2(c3cccc(-c4cnccn4)c3)N=C(N)N(C)C2=O)ccc1OC(F)F` (stereo not shown) [FAH-86], for which, in series [2], the half-maximal inhibitory concentration (IC50) is more than 50000 nM. For the same molecule, the PAMPA in series [3] is 0.68.
`Cc1cc(C2(c3cccc(-c4cncnc4)c3)N=C(N)N(C)C2=O)ccc1OC(F)F` (racemic) [FAH-65, 2-amino-5-(4-(difluoromethoxy)-3-methylphenyl)-3-methyl-5-(3-(pyrimidin-5-yl)phenyl)-3,5-dihydro-4H-imidazol-4-one]: the IC50 in [1] (cell-free BACE assay) was found to be 22 nM. Moreover, the concentration for half-maximal inhibition (IC50) in series [1] (setting [11]) is 5 to 10 nM and 19 nM and 11.2 nM and 16 nM and 11 nM and 15 nM and 24 nM and 14 nM. In series [2], this molecule returned a 50% inhibitory concentration (IC50) of 47100 nM. For the same molecule, the PAMPA in [3] was 0.44 and 0.45 and 0.46 and 0.47 and 0.52 and 0.48 and 0.49. For the same molecule, in [4], the “amyloid-beta (Aβ)” value is listed as “significantly decreased” and the “soluble amyloid precursor protein beta (sAPPβ)” value is “significantly decreased”. Moreover, the “inhibitory activity in cleavage of neuregulin 1 (NRG-1)” value in series [6] is given as “little cleavage”. For the same molecule, the “inhibitory activity in cleavage of p-selectin glycoprotein ligand 1 (PSGL-1)” value in [7] is “little cleavage”. Also, the brain penetrance entry in series [5] is “brain-penetrant”. In series [5] (oral delivery at 30 mg/kg, one hour post-dosing), this molecule registered a peak in brain of 74 ng/g. For the same molecule, in series [8], the “BACE/γ-secretase product Aβ” value is recorded as “trend to decrease” and the “decrease of APP-derived BACE cleavage product βCTF (beta C-terminal fragment)” value was “significantly”. In addition, the brain peak in [9] was 182 ng/g. In addition, in series [10] (at 3 and 6 hours, vs untreated controls), the “sAPPβ in CSF” value is “reduced”. The Aβ1-40 levels entry in series [10] (compared to control, decrease persisted to 24 hours) is on record as “decreased”.

The values are drawn from patent US20210101879A1, “AMYLOID PROTEIN-SELECTIVE BACE INHIBITORS (ASBIs) FOR ALZHEIMER?S DISEASE” (The Regents of the University of California, priority 2018, published 2021).
